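Test compounds were applied to cells in 96-well plates for 48 hours at 5 doses. GI50: concentration for 50% inhibition of growth. TGI marks complete inhibition of growth.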 A value given as a limit tells only on which side of the number the result lay.

Some test systems named below: SNB-75 CNS; CCRF-CEM leukemia; ACHN renal; SNB-19 CNS; DU-145 prostate; LOX IMVI melanoma; SF-539 CNS; MDA-MB-435; SW-620 colon; OVCAR-8 ovarian.
Holding throughout (assay): NCI-60 cell line screen, 48 h

On to `CCOC(=O)NC(Nc1ccc(Cl)cn1)(C(F)(F)F)C(F)(F)F`, for which the TGI with SNB-75 CNS, in the test on CCRF-CEM leukemia, in the test with ACHN renal, with SNB-19 CNS, with DU-145 prostate and with LOX IMVI melanoma was greater than 100 µM throughout. For the same compound, the TGI with SF-539 CNS and in the test on MDA-MB-435 was greater than 100 µM in each case.

As for `O=C(O)Cn1c2c(c3c(O)cccc31)C(=O)c1ccccc1-2`, the GI50 with SNB-75 CNS, in the test on CCRF-CEM leukemia, in the test on SW-620 colon, with OVCAR-8 ovarian, in the test on ACHN renal and in the test with SNB-19 CNS was greater than 100 µM each time. Besides, the GI50 in the test with DU-145 prostate is 0.0519 µM; with LOX IMVI melanoma it was greater than 100 µM; with SF-539 CNS, 5.62 µM; in the test with MDA-MB-435, greater than 100 µM. In addition, the TGI with SNB-75 CNS, in the test on CCRF-CEM leukemia, in the test with SW-620 colon, in the test with OVCAR-8 ovarian, with ACHN renal and with SNB-19 CNS was greater than 100 µM throughout. Moreover, the TGI with DU-145 prostate, in the test on LOX IMVI melanoma, in the test with SF-539 CNS and in the test with MDA-MB-435 was greater than 100 µM in each case.

Regarding `CCCOC1OC(CS(=O)(=O)O)C(O)C(O)C1O` (configuration not stated), the TGI in the test on SNB-75 CNS, with CCRF-CEM leukemia, with SW-620 colon, in the test on OVCAR-8 ovarian, in the test on SNB-19 CNS and in the test on DU-145 prostate was greater than 100 µM in each case. Besides, the TGI in the test with LOX IMVI melanoma and in the test on MDA-MB-435 was greater than 100 µM each time.

`CC(=O)N/C(=C\c1ccc(/C=C(\NC(C)=O)C2=NC3C(=O)c4ccccc4C(=O)C3N2)cc1)C1=NC2C(=O)c3ccccc3C(=O)C2N1` (configuration not stated): the TGI in the test on SNB-75 CNS was 76.2 µM; with CCRF-CEM leukemia, 86.4 µM; in the test with OVCAR-8 ovarian, greater than 100 µM; with ACHN renal, greater than 100 µM; with SNB-19 CNS, greater than 100 µM; in the test on LOX IMVI melanoma, greater than 100 µM. In the test with SF-539 CNS, this compound showed a TGI greater than 100 µM.

As to `C=CCc1cccc(/C=N\N=C(/N)NO)c1O`, the TGI was 25.9 µM with SNB-75 CNS; greater than 27 µM with CCRF-CEM leukemia; greater than 100 µM with SW-620 colon; 52.6 µM with OVCAR-8 ovarian; greater than 94.4 µM in the test on SNB-19 CNS; 22.7 µM in the test with LOX IMVI melanoma. The same compound came in with a TGI in the test on SF-539 CNS of 6.81 µM.

For the compound `CCCCN=C1OCc2[nH][nH]c(=O)c21`, the TGI in the test with SNB-75 CNS, in the test with CCRF-CEM leukemia, in the test on SW-620 colon, with OVCAR-8 ovarian, in the test with ACHN renal and with SNB-19 CNS was greater than 100 µM throughout. Further, the TGI with LOX IMVI melanoma and with SF-539 CNS was greater than 100 µM each time.

As for `Cc1ccc(C2CC(c3cccc(Nc4ccncc4)c3)=NN2c2ccccc2)cc1` (configuration not stated), the GI50 was 1.32 µM with SNB-75 CNS; 3.95 µM with CCRF-CEM leukemia; 1.71 µM with SW-620 colon; 2.19 µM in the test on OVCAR-8 ovarian; 1.69 µM in the test with ACHN renal; 1.89 µM in the test on DU-145 prostate. Also, the GI50 in the test with SF-539 CNS was 1.74 µM; in the test with MDA-MB-435, 1.64 µM. Moreover, the TGI in the test with SNB-75 CNS is 2.88 µM; in the test on CCRF-CEM leukemia, 77.9 µM; in the test on SW-620 colon it was 3.3 µM; in the test with OVCAR-8 ovarian it was 4.85 µM; in the test with ACHN renal, 3.05 µM; in the test with DU-145 prostate, 3.6 µM. In addition, the TGI is 3.16 µM in the test on SF-539 CNS and 3.06 µM with MDA-MB-435.

Take `CCCCCCCCCCCCCCCC(=O)OC1C(O)C(CO)OC(OC)C1NC(=O)N(CCCl)N=O` (configuration not stated): the TGI with SNB-75 CNS was found to be 24.6 µM; with SW-620 colon, 26.1 µM; in the test with OVCAR-8 ovarian, 38.1 µM; in the test with ACHN renal it was 21.9 µM; in the test on SNB-19 CNS, 23.8 µM; in the test on LOX IMVI melanoma, 23.9 µM. This compound showed a TGI in the test with SF-539 CNS of 6.16 µM.

For the compound `O=[As](O)(O)c1ccc2nc3cc([As](=O)(O)O)ccc3nc2c1`, the TGI with SNB-75 CNS, in the test on SW-620 colon, in the test with OVCAR-8 ovarian, in the test with ACHN renal, in the test with SNB-19 CNS and with DU-145 prostate was greater than 100 µM throughout. Further, the TGI in the test on LOX IMVI melanoma and in the test on MDA-MB-435 was greater than 100 µM throughout.

With `C[C@]12CC[C@@H]3c4ccc(OCCN5CCCC5)cc4CC[C@H]3[C@@H]1CCC2=O`, the TGI with CCRF-CEM leukemia, in the test with SW-620 colon, in the test with OVCAR-8 ovarian, with ACHN renal, in the test on SNB-19 CNS and with DU-145 prostate was greater than 100 µM each time. For the same compound, the TGI with LOX IMVI melanoma was 29.7 µM; with MDA-MB-435 it was greater than 100 µM.

The values above are taken from PubChem BioAssay (NCI).
